Assay results from patent publication US8546085B2, “Methods of identifying modulators of the bitter taste receptor TAS2R44” (Givaudan SA, priority 2008, dated 2013).
Like-named read-outs stand apart in the source and are kept apart here.

Tests used:
TAS2R44 = molecular target: T1, TAS2R44 (Homo sapiens, UniProt P59538, L162M); test: Fluo-4 calcium assay, antagonists of the response of TAS2R44 to steviol glycosides; assay type: cell-based
T1 construct: The full length gene of human TAS2R44 was amplified by polymerase chain reaction (PCR) using gene-specific primers that span the entire coding region; RSS tag (first 45 amino acids of rat somatostatin receptor subtype 3, plus EcoRI site) (N); expressed in transfected cells; host or cells: HEK293T/Galpha16-gustducin 44 cells, stably transfected with pcDNA3.1Zeo-TAS2R44
T1 sequence (P59538 with tags, fused parts or gaps L162M): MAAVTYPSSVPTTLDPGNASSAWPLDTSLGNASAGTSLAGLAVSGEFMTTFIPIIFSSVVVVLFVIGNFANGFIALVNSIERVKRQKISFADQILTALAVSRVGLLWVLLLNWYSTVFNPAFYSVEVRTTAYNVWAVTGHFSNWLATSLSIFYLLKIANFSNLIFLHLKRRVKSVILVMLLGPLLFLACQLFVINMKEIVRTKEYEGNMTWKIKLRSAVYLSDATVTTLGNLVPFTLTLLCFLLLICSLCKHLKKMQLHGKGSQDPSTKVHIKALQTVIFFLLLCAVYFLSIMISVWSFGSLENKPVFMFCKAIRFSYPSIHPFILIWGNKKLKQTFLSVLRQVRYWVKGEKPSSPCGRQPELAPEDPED
Protocol: All cells were HEK293T cells stably expressing Gα16-gustducin44, or expressing Gα16-gustducin44 and TAS2R44.
The method was carried out as described in example 3 subject to the following modifications:
The samples were tested with and without candidate bitter blocker and the signals were compared. The candidate bitter blocker was dissolved in dimethylsulfoxide (DMSO), and a negative control with equivalent DMSO concentration (0.02%) was performed accordingly to exclude a potential inhibitory effect of the solvent. Furthermore, a control with the relevant steviol glycoside and DMSO (0.02%) was performed accordingly (see table in example 5).
All data was calculated as ΔF/F0 and the standard deviation (STD) is indicated in each table, see results for the identified bitter blocker 4-(2,2,3-trimethyl-cyclopentyl)-butanoic acid below.

[1] = tested on: bitter taste/aftertaste of Rebaudioside A; test: Sensory evaluation of bitter blocking by 8 bitter-sensitive panelists; assay type: in vivo, human
Protocol: 4-(2,2,3-trimethyl-cyclopentyl)-butanoic acid was sensorically evaluated for its bitter blocking characteristics by 8 bitter-sensitive panelists.
The following samples in water were evaluated and compared in their bitter taste/aftertaste: • Rebaudioside A (60 ppm) with bitter blocker (10 ppm) • Rebaudioside A (60 ppm) without bitter blocker • Rebaudioside A (230 ppm, isosweet to 7% sugar in water) • Rebaudioside A (230 ppm) with bitter blocker (10 ppm 30 ppm and 50 ppm)
20 ml of each sample was presented in random order.

TAS2R44 ΔF/F0 (TAS2R44; 0.7 mM rebaudioside A (EC50) + bitter blocker 0.098 μM): 0.4022
TAS2R44 ΔF/F0 (TAS2R44; 0.7 mM rebaudioside A (EC50) + bitter blocker 0.195 μM): 0.3678
TAS2R44 ΔF/F0 (TAS2R44; 0.7 mM rebaudioside A (EC50) + bitter blocker 0.391 μM): 0.2825
TAS2R44 ΔF/F0 (TAS2R44; 0.7 mM rebaudioside A (EC50) + bitter blocker 0.781 μM): 0.2156
TAS2R44 ΔF/F0 (TAS2R44; 0.7 mM rebaudioside A (EC50) + bitter blocker 1.563 μM): 0.1328
TAS2R44 ΔF/F0 (TAS2R44; 0.7 mM rebaudioside A (EC50) + bitter blocker 3.125 μM): 0.1225
TAS2R44 ΔF/F0 (TAS2R44; 0.7 mM rebaudioside A (EC50) + bitter blocker 6.250 μM): 0.1794
TAS2R44 ΔF/F0 (TAS2R44; 0.7 mM rebaudioside A (EC50) + bitter blocker 12.50 μM): 0.2056
TAS2R44 ΔF/F0 (TAS2R44; 0.7 mM rebaudioside A (EC50) + bitter blocker 25.00 μM): 0.2275
TAS2R44 ΔF/F0 (TAS2R44; 0.7 mM rebaudioside A (EC50) + bitter blocker 50.00 μM): 0.2347
TAS2R44 ΔF/F0 (TAS2R44; 0.7 mM rebaudioside A (EC50) + bitter blocker 100.0 μM): 0.2238
TAS2R44 ΔF/F0 (TAS2R44; 2.2 mM stevioside (EC50) + bitter blocker 0.098 μM): 0.665
TAS2R44 ΔF/F0 (TAS2R44; 2.2 mM stevioside (EC50) + bitter blocker 0.195 μM): 0.596
TAS2R44 ΔF/F0 (TAS2R44; 2.2 mM stevioside (EC50) + bitter blocker 0.391 μM): 0.555
TAS2R44 ΔF/F0 (TAS2R44; 2.2 mM stevioside (EC50) + bitter blocker 0.781 μM): 0.491
TAS2R44 ΔF/F0 (TAS2R44; 2.2 mM stevioside (EC50) + bitter blocker 1.563 μM): 0.431
TAS2R44 ΔF/F0 (TAS2R44; 2.2 mM stevioside (EC50) + bitter blocker 3.125 μM): 0.430
TAS2R44 ΔF/F0 (TAS2R44; 2.2 mM stevioside (EC50) + bitter blocker 6.250 μM): 0.328
TAS2R44 ΔF/F0 (TAS2R44; 2.2 mM stevioside (EC50) + bitter blocker 12.50 μM): 0.293
TAS2R44 ΔF/F0 (TAS2R44; 2.2 mM stevioside (EC50) + bitter blocker 25.00 μM): 0.252
TAS2R44 ΔF/F0 (TAS2R44; 2.2 mM stevioside (EC50) + bitter blocker 50.00 μM): 0.238
TAS2R44 ΔF/F0 (TAS2R44; 2.2 mM stevioside (EC50) + bitter blocker 100.0 μM): 0.212
IC50 (TAS2R44; inhibition of the response to 0.7 mM rebaudioside A, read-out: IC50 concentration for rebaudioside): 0.357 µM
IC50 (TAS2R44; inhibition of the response to 2.2 mM stevioside, read-out: IC50 concentration for stevioside): 0.578 µM
SMILES: CC1CCC(CCCC(=O)O)C1(C)C (centres unmarked) [4-(2,2,3-trimethyl-cyclopentyl)-butanoic acid]
effect on bitterness of Rebaudioside A ([1]; 10 ppm bitter blocker, in water): blocked the upfront bitterness but some lingering bitterness/aftertaste remained
effect on bitterness of Rebaudioside A ([1]; 30 ppm bitter blocker, Rebaudioside A 230 ppm in water): improved effect to reduce the lingering bitterness/bitter aftertaste
effect on bitterness of Rebaudioside A ([1]; 50 ppm bitter blocker, Rebaudioside A 230 ppm in water): improved effect to reduce the lingering bitterness/bitter aftertaste
effect on bitterness of Rebaudioside A ([1]; 60 ppm, in water): completely blocked the bitterness including the bitter aftertaste
effect on bitter taste/aftertaste of Rebaudioside A ([1]; all panelists, samples in water): blocked or significantly reduced the bitter taste/aftertaste
